Experimental data as given in EP4644383A1 (Jiangsu Yahong Meditech Co., Ltd., priority 2022, dated 2024).
pIC50: −log10 of the molar value. Where two headings read alike, the source gives them in different places.

What was measured:
Assay type in all cases: biochemical
[1] = molecular target: T1, FGFR3 (Homo sapiens, UniProt P22607); assay: FGFR3 kinase activity inhibition assay (LanthaScreen TR-FRET); settings: for IC50: FGFR3 kinase, TR-FRET, read-out: IC50 (nM) FGFR3; for Selectivity (X) FGFR1/FGFR3: ratio of IC50 FGFR1/FGFR3, selectivity towards FGFR3; for Selectivity (X) FGFR2/FGFR3: ratio of IC50 FGFR2/FGFR3, selectivity towards FGFR3; for Selectivity (X) FGFR4/FGFR3: ratio of IC50 FGFR4/FGFR3, selectivity towards FGFR3
T1 construct: FGFR3's cytoplasmic domain [436-806 (terminal) amino acids]; purchased Carna 08-135
T1 sequence (P22607 436-806): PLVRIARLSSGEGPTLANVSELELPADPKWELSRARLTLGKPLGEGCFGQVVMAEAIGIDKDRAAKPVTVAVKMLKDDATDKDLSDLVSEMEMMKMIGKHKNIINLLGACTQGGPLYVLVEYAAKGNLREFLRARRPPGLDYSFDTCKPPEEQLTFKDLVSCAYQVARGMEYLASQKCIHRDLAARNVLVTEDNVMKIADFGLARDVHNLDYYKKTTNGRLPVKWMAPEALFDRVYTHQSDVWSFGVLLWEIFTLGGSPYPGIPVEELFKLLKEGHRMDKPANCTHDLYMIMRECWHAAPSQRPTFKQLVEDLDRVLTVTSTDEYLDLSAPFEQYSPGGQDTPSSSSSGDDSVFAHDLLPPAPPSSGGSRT
Summary of the method: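 Read-out is TR-FRET, with the 520 nm/495 nm emission ratio normalised to DMSO (max) and enzyme-free (min) controls. Enzyme was the FGFR3 cytoplasmic domain, residues 436-806. EDTA (10 mM) stopped the reaction, followed by 60 min at 22 °C before reading.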

[2] = molecular target: T2, FGFR1 (Homo sapiens, UniProt P11362); assay: FGFR1 kinase activity inhibition assay (LanthaScreen TR-FRET); settings: for IC50: FGFR1 kinase, TR-FRET, read-out: IC50 (nM) FGFR1
T2 construct: cytoplasmic domain [398-822 (terminal) amino acids]; purchased Carna 08-133
T2 sequence (P11362 398-822): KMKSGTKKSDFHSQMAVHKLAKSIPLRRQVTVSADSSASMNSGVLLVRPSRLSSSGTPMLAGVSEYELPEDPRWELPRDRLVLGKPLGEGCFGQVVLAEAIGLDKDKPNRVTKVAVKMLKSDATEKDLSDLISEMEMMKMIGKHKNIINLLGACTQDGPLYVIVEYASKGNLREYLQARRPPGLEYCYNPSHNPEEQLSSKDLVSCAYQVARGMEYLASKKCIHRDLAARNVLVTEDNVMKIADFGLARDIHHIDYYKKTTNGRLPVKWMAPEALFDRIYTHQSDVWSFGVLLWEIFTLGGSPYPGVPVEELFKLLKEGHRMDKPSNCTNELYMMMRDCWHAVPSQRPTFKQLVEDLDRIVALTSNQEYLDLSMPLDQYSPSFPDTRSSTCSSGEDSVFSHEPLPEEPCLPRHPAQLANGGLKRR
Summary of the method: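 Emission ratio 520 nm/495 nm by TR-FRET after stopping reaction with 10 mM EDTA and 60 min incubation at 22°C. Inhibition normalized between no-enzyme (min) and DMSO (max) controls, then fitted to a four-parameter curve (Top, Bottom, HillSlope).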

[3] = molecular target: T3, FGFR2 (Homo sapiens, UniProt P21802); assay: FGFR2 kinase activity inhibition assay (LanthaScreen TR-FRET); settings: for IC50: FGFR2 kinase, TR-FRET, read-out: IC50 (nM) FGFR2
T3 construct: FGFR2's cytoplasmic domain [399-821 (terminal) amino acids]; purchased Carna 08-134
T3 sequence (P21802 399-821): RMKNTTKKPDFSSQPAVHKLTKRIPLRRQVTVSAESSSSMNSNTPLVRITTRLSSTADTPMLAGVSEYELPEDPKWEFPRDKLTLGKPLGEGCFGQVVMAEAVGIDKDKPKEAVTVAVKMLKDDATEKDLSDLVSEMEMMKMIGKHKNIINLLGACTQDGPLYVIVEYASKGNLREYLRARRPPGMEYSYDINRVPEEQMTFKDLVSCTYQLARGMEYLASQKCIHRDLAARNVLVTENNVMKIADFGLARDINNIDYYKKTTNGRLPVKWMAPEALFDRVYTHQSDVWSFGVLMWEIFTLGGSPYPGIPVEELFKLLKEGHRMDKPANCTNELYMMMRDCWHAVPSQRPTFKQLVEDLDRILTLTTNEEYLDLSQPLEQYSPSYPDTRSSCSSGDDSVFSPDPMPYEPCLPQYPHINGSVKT
Experimental: (§1) FGFR1 kinase activity was measured using Invitrogen LanthaScreen™ assay technology, which utilized fluorescently-labeled peptides and terbium-labeled antibodies to directly measure an amount of the phosphorylated substrate through time-resolved fluorescence energy transfer (TR-FRET). • ① The test compounds were diluted: starting from a concentration of 1 µM, with a buffer solution in a three-fold serial dilution, the buffer solution being composed of 50 mM HEPES, 10 mM MgCl2, 0.01% TritonX-100, 0.01% BSA, 4 mM DTT (pH 7.5), and 1% DMSO; • ② 0.01 nM recombinant human GST fusion protein FGFR1's cytoplasmic domain [398-822 (terminal) amino acids] (Carna: 08-133) was formulated into a 2 × solution, mixed well with the test compounds, and incubated at 23°C for 10 minutes; • ③ 28 nM Fluorescein-Poly GT peptide substrate (Life Technologies: PV3611) and 28 µM ATP were formulated into a 2 × solution, mixed well with the test compounds and enzyme in ②, and incubated at 23°C for 30 minutes; • ④ 10 µL of 2nM Tb-PY20 antibody (Life Technologies: PV3552) and 10 mM EDTA were added to quench the kinase reaction, and incubated at 22°C for 60 minutes. • ⑤ The reaction was measured using a PerkinElmer EnVision multimode plate reader through TR-FRET dual wavelength detection. • 1. The RFU values were copied from the Envision program. • 2. The ratio of RFU 520nm/RFU 495nm was calculated. • 3. The value of the ratio was converted to a percentage inhibition value. % Inhibition = (max-data)/(max-min) × 100 [formula]
(§2) "Min" represents the ratio of the control without enzyme, "max" represents the ratio of the DMSO control, and "data" represents the ratio of the compounds in wells with different concentrations.
(§3) "Top" refers to the maximum response, "Bottom" refers to the minimum response, and "HillSlope" refers to the slope of the curve.
According to the same method as that in the FGFR1 kinase activity inhibition assay, the inhibitory activities against FGFR2, FGFR3 and FGFR4 were tested using FGFR2's cytoplasmic domain [399-821 (terminal) amino acids] (Carna: 08-134), FGFR3's cytoplasmic domain [436-806 (terminal) amino acids] (Carna: 08-135) and FGFR4's cytoplasmic domain [460-802 (terminal) amino acids] (Carna: 08-136), respectively. […]

[4] = molecular target: T4, FGFR4 (Homo sapiens, UniProt P22455); assay: FGFR4 kinase activity inhibition assay (LanthaScreen TR-FRET); settings: FGFR4 kinase, TR-FRET; read-out: IC50 (nM) FGFR4
T4 construct: FGFR4's cytoplasmic domain [460-802 (terminal) amino acids]; purchased Carna 08-136
T4 sequence (P22455 460-802): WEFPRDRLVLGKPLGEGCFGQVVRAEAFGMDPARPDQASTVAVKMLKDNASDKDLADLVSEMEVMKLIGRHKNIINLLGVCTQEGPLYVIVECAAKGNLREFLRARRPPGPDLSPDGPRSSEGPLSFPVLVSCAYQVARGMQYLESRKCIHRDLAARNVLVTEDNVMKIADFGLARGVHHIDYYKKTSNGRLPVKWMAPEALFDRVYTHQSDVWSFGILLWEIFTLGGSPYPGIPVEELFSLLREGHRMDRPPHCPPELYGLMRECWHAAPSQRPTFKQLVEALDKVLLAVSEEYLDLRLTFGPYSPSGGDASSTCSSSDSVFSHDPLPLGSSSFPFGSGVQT
Experimental: as §1, §2, §3
According to the same method as that in the FGFR1 kinase activity inhibition assay, the inhibitory activities against FGFR2, FGFR3 and FGFR4 were tested using FGFR2's cytoplasmic domain [399-821 (terminal) amino acids] (Carna: 08-134), FGFR3's cytoplasmic domain [436-806 (terminal) amino acids] (Carna: 08-135) and FGFR4's cytoplasmic domain [460-802 (terminal) amino acids] (Carna: 08-136), respectively. Table 1 reports the kinase activity inhibition results and selectivity towards FGFR3 of each compound.

SMILES	IC50 [1] [nM]	Selectivity (X) FGFR1/FGFR3 [1]	Selectivity (X) FGFR2/FGFR3 [1]	IC50 [2] [nM]	IC50 [3] [nM]	IC50 [4] [nM]	Selectivity (X) FGFR4/FGFR3 [1]	pIC50 [1]	pIC50 [2]	pIC50 [3]
C[C@@H](Oc1cc(C(F)(F)F)c2[nH]nc(-c3cnn(C)c3)c2c1)c1c(Cl)cncc1Cl [Example 1, (R)-5-(1-(3,5-dichloropyridin-4-yl)ethoxy)-3-(1-methyl-1H-pyrazol-4-yl)-7-(trifluoromethyl)-1H-indazole]	> 100	A (A represents 1 ≤ multiple X<20)	A (A represents 1 ≤ multiple X<20)	> 100	> 100					
Cc1cc(O[C@H](C)c2c(Cl)cncc2Cl)cc2c(-c3cnn(C)c3)n[nH]c12 [Example 2, (R)-5-(1-(3,5-dichloropyridin-4-yl)ethoxy)-7-methyl-3-(1-methyl-1H-pyrazol-4-yl)-1H-indazole]	1 to 10	B (B represents 20 ≤ multiple X<50)	A (A represents 1 ≤ multiple X<20)	> 100	10 to 100	> 100	B (B represents 20 ≤ multiple X<50)			
C[C@@H](Oc1ccc2[nH]nc(-c3cnn(C4CCN(C(=O)N(C)C)CC4)c3)c2n1)c1c(Cl)cncc1Cl [Example 36, (R)-4-(4-(5-(1-(3,5-dichloropyridin-4-yl)ethoxy)-1H-pyrazolo[4,3-b]pyridin-3-yl)-1H-pyrazol-1-yl)-N,N-dimethylpiperidine-1-carboxamide]		A (A represents 1 ≤ multiple X<20)	A (A represents 1 ≤ multiple X<20)					8.00 to 9.00	7.00 to 8.00	7.00 to 8.00
CC(C)N1CCC(n2cc(-c3n[nH]c4ccc(O[C@H](C)c5c(Cl)cncc5Cl)nc34)cn2)CC1 [Example 37, (R)-5-(1-(3,5-dichloropyridin-4-yl)ethoxy)-3-(1-(1-isopropylpiperidin-4-yl)-1H-pyrazol-4-yl)1H-pyrazolo[4,3-b]pyridine]		A (A represents 1 ≤ multiple X<20)	A (A represents 1 ≤ multiple X<20)					8.00 to 9.00	8.00 to 9.00	8.00 to 9.00
C[C@@H](Oc1ccc2[nH]nc(-c3cnn(CCO)c3)c2n1)c1c(Cl)cncc1Cl [Example 39, (R)-2-(4-(5-(1-(3,5-dichloropyridin-4-yl)ethoxy)-1H-pyrazolo[4,3-b]pyridin-3-yl)-1H-pyrazol-1-yl)ethan-1-ol]	1 to 10	A (A represents 1 ≤ multiple X<20)	A (A represents 1 ≤ multiple X<20)	10 to 100	1 to 10					
C[C@@H](Oc1ccc2[nH]nc(-c3cnn(CC(F)F)c3)c2n1)c1c(Cl)cncc1Cl [Example 41, (R)-5-(1-(3,5-dichloropyridin-4-yl)ethoxy)-3-(1-(2,2-difluoroethyl)-1H-pyrazol-4-yl)-1H-pyrazolo[4,3-b]pyridine]	10 to 100	A (A represents 1 ≤ multiple X<20)	A (A represents 1 ≤ multiple X<20)	10 to 100	10 to 100					
C[C@@H](Oc1ccc2[nH]nc(-c3cnn(C4CC4)c3)c2n1)c1c(Cl)cncc1Cl [Example 48, (R)-3-(1-cyclopropyl-1H-pyrazol-4-yl)-5-(1-(3,5-dichloropyridin-4-yl)ethoxy)-1H-pyrazino[4,3-b]pyridine]	1 to 10	A (A represents 1 ≤ multiple X<20)	A (A represents 1 ≤ multiple X<20)	10 to 100	10 to 100					
CNCCNC(=O)c1ccc2[nH]nc(-c3cnn(C)c3)c2c1 [Example 65, 3-(1-methyl-1H-pyrazol-4-yl)-N-(2-(methylamino)ethyl)-1H-indazole-5-carboxamide]	10 to 100	B (B represents 20 ≤ multiple X<50)	C (C represents 50 ≤ multiple X<100)	> 100	> 100					
CC(Oc1ccc2[nH]nc(-c3cnn(C)c3)c2c1)c1cc(C#N)cc2ncccc12 (centres unmarked) [Example 159, 5-(1-((3-(1-methyl-1H-pyrazol-4-yl)-1H-indazol-5-yl)oxy)ethyl)qu inoline-7-carbonitrile]	1 to 10	B (B represents 20 ≤ multiple X<50)	A (A represents 1 ≤ multiple X<20)	> 100	10 to 100					
CC(Oc1ccc2[nH]nc(-c3cnn(C4CCN(C#N)CC4)c3)c2c1)c1cccc2nccnc12 (centres unmarked) [Example 162, 4-(4-(5-(1-(quinoxalin-5-yl)ethoxy)-1H-indazol-3-yl)-1H-pyrazol-1-yl)piperidine-1-carbonitrile]	1 to 10	A (A represents 1 ≤ multiple X<20)	A (A represents 1 ≤ multiple X<20)	10 to 100	10 to 100					
CC(Oc1ccc2[nH]nc(-c3cnn(C4CCN(S(C)(=O)=O)CC4)c3)c2c1)c1cccc2nccnc12 (centres unmarked) [Example 163, 5-(1-((3-(1-(1-(methylsulfonyl)piperidin-4-yl)-1H-pyrazol-4-yl)-1-indazol-5-yl)oxy)ethyl)quinoxaline]		A (A represents 1 ≤ multiple X<20)	A (A represents 1 ≤ multiple X<20)					8.00 to 9.00	7.00 to 8.00	7.00 to 8.00
CC(Oc1ccc2[nH]nc(-c3cnn(CCCS(C)(=O)=O)c3)c2c1)c1cccc2nccnc12 (centres unmarked) [Example 181, 5-(1-((3-(1-(3-(methylsulfonyl)propyl)-1H-pyrazol-4-yl)-1H-indazol-5-yl)oxy)ethyl)quinoxaline]	< 1	A (A represents 1 ≤ multiple X<20)		10 to 100		10 to 100	A (A represents 1 ≤ multiple X<20)			
CNC1CC(n2cc(-c3n[nH]c4ccc(OC(C)c5cccc6nccnc56)cc34)cn2)C1 (centres unmarked) [Example 182, N-methyl-3-(4-(5-(1-(quinoxalin-5-yl)ethoxy)-1H-indazol-3-yl)-1H-pyrazol-1-yl)c yclobutan-1-amine]	1 to 10	A (A represents 1 ≤ multiple X<20)		10 to 100		10 to 100	A (A represents 1 ≤ multiple X<20)			
CC(Oc1ccc2[nH]nc(-c3cnn(C)c3)c2c1)c1cccn2ncc(F)c12 (centres unmarked) [Example 184, 5-(1-(3-fluoropyrazolo[1,5-a]pyridin-4-yl)ethoxy)-3-(1-methyl-1H-pyrazol-4-yl)-1H-indazole]	< 1	B (B represents 20 ≤ multiple X<50)		10 to 100		1 to 10	A (A represents 1 ≤ multiple X<20)			
CC(Oc1ccc2[nH]nc(-c3cnn(CCCS(C)(=N)=O)c3)c2c1)c1cc(F)cc2nccnc12 (centres unmarked) [Example 185]	< 1	B (B represents 20 ≤ multiple X<50)		10 to 100		10 to 100	B (B represents 20 ≤ multiple X<50)			
